From US9877981B2, “NAD biosynthesis and precursors for the treatment and prevention of cancer and proliferation” (President and Fellows of Harvard College, priority 2012, dated 2018)

Key:
Type in all cases: cell-based, mouse
PGC-1α/β KO myotubes = experiment: qPCR of ETC genes in PGC-1α/β KO myotubes; conditions: for expression of nuclear- and mitochondrial-encoded genes: EX-527 48 h
Protocol: (§1) Primary myoblasts cells were isolated from WT, SIRT1 KO (Price et al., 2012) and PGC-1α/β KO (Zechner et al., 2010) mice as previously described (Price et al., 2012). WT and PGC-1α/β KO primary myoblasts were plated and allowed to differentiate into myotubes by replacing the media with low glucose DMEM supplemented with 2% horse serum (Sigma-Aldrich) for 4 days. After the differentiation the cells were infected with empty vector or flag-SIRT1 adenovirus as described before (Gerhart-Hines et al., 2007). Media was replaced with fresh DMEM supplemented with 2% horse serum (Sigma-Aldrich) for an additional 48 hr and, after that the cells were harvested for the different assays as described. To investigate the role of HIF-1α in genome asynchrony, PGC-1α/β KO primary myotubes were treated for 12 hours with 1 mM DMOG (Sigma) or 10 μM DFO (Sigma), 24 h after infection with empty vector of flag-SIRT1 adenovirus or after 12 h treatment with 500 mM NMN (Sigma).
(§2) RNA from skeletal muscle tissue and C2C12 cells were extracted with RNeasy mini kit (Qiagen) according to the instructions and quantified using the NanoDrop 1000 spectrophotometer (Thermo Scientific). cDNA was synthesized with the iSCRIP cDNA synthesis kit (BioRad) using 600 ng of RNA. Quantitative RT-PCR reactions were performed using 1 μM of primers and LightCycler® 480 SYBR Green Master (Roche) on an LightCycler® 480 detection system (Roche). Calculations were performed by a comparative method (2-ΔCT) using 18S as an internal control. For mtDNA analysis, total DNA was extracted with DNeasy blood and tissue kit (Qiagen). mtDNA was amplified using primers specific for the mitochondrial cytochrome c oxidase subunit 2 (COX2) gene and normalized to genomic DNA by amplification of the ribosomal protein s18 (rps18) nuclear gene. Primers were designed using the IDT software (IDT) and the primer sequences can be found in Table 1.

C2C12 myoblasts = experiment: mtDNA content and ETC gene expression in C2C12 myoblasts; conditions: C2C12 cells; 10 μM EX-527 for 12 h
Protocol: C2C12 cell line (ATCC) was cultured in low glucose Dulbecco's modified eagle medium (DMEM) (Invitrogen) supplemented with 10% FBS (Invitrogen) and a mix of antibiotic and antimycotic (Invitrogen). To inhibit SIRT1, cells were treated the vehicle (0.001% DMSO) or 10 μM EX-527 (Tocris) for 12 h. C2C12 myoblasts were infected with an empty or SIRT1 adenovirus as described before (Gerhart-Hines et al., 2007) and the media was replaced with fresh DMEM for additional 48 h, after that the cells were treated as described before. To test the effects of hypoxia and HIFα stabilization in genome asyncrony, C2C12 myoblasts were exposed to 1% oxygen for 16 h or treated with the vehicle (0.001% DMSO) or DMOG (Cayman) for the same period of time.
as §2

HIF-1α = experiment: Immunoblot of HIF-1α in primary WT myoblasts; conditions: 10 mM lactate 24 h
Protocol: as §1, with “To investigate the role of HIF-1α in genome asynchrony, PGC-1α/β KO primary myotubes were treated for 12 hours with 1 mM DMOG (Sigma) or 10 μM DFO (Sigma), 24 h after infection with empty vector of flag-SIRT1 adenovirus or after 12 h treatment with 500 mM NMN (Sigma).” left out
Protein extracts from tissue or C2C12 cells were obtained by lysis in ice-cold lysis buffer (150 mM NaCl, 10 mM Tris HCl (pH 7.4), 1 mM EDTA, 1 mM EGTA, 1% Triton X-100, 0.5% NP-40) supplemented with a cocktail of protease and phosphatase inhibitors (Roche). Protein content was determined by the Bradford protein assay (Biorad), and 50 μg proteins were run on SDS-PAGE under reducing conditions. […] The immunostaining was detected using horseradish peroxidase-conjugated anti-rabbit or anti-mouse immunoglobulin for 1 h at room temperature.

NAD+/NADH = NAD+/NADH ratio in primary myoblasts treated with pyruvate or lactate; conditions: primary WT myoblasts; 10 mM lactate 24 h
Protocol: as §1

SMILES: CC(=O)N(O)CCCCCNC(=O)CCC(=O)N(O)CCCCCNC(=O)CCC(=O)N(O)CCCCCN [DFO, desferrioxamine]
- effect on NMN-induced expression of mitochondrially-encoded ETC genes (PGC-1α/β KO myotubes; PGC-1α/β KO myotubes, NMN plus 1 mM DMOG or 10 μM DFO, 12 hours): completely abolished
- effect on induction of mitochondrial ETC genes by SIRT1 overexpression (PGC-1α/β KO myotubes; PGC-1α/β knockout myotubes with SIRT1 adenovirus, 1 mM DMOG or 10 μM DFO): completely blocked

SMILES: NC(=O)C1CCCc2c1[nH]c1ccc(Cl)cc21 (stereo not shown) [EX-527]
- genome asynchrony (C2C12 myoblasts): Genome asynchrony was induced
- expression of nuclear- and mitochondrial-encoded genes (PGC-1α/β KO myotubes; PGC-1α/β KO myotubes reconstituted with PGC-1α T177A/S538A mutant): only the mitochondrial-encoded genes decreased
- expression of nuclear- and mitochondrial-encoded genes (PGC-1α/β KO myotubes; PGC-1α/β KO myotubes reconstituted with WT PGC-1α): decreased both nuclear- and mitochondrial-encoded genes

SMILES: CC(O)C(=O)O (stereo not shown) [lactate]
- HIF-1α protein stabilization (HIF-1α): induces HIF-1α protein stabilization
- NAD+/NADH ratio (NAD+/NADH): decreasing NAD^+/NADH ratio
